# Measured values as given in patent US5411965A, “Use of delta opioid receptor antagonists to treat cocaine abuse” (Arizona Board of Regents, priority 1993, dated 1995).
# Entries after “also recorded” stand apart in the source; their conditions may differ. Read-outs that look alike come from different tables or passages of the source.
# How the values were obtained:
# [1] = Conditioned place preference (CPP) test; type: in vivo, male Lewis rats; conditions: for conditioned place preference, cocaine alone: cocaine 15 mg/kg s.c. plus placebo
# Text: Testing associated with conditioning place preference (CPP) procedures involves some rather straightforward assumptions and observations.
# To test NTI's ability to block cocaine's ability to establish a CPP, male, Lewis rats were subjected to standard procedures associated with testing for place preferences. The rats were first habituated to being handled.
# Then, the rats were put into an alley having two distinctive sides with the barrier separating the two sides not in place, i.e., a baseline preference for the two sides was measured. After baseline was determined, the conditioning procedures began.
# The conditioning procedures were the same for all rats, except that there were four different regimens of drug administration, one regimen for each of four different groups of rats (12 rats a group). The conditioning procedure involved one set of kind of injections before a rat was placed in one side of the alley and another set of kind of injections before being placed in the other side.
# The group of rats that received the procedures usually used to show a cocaine-produced CPP, received cocaine-injections (plus a placebo injection) before being put into the putative side of conditioning. The dose of cocaine was 15 mg/kg given subcutaneously, a relatively large dose of cocaine. On the next day, this group received placebo injections before being put into the alternative side. These procedures were repeated throughout conditioning.
# There was also a group that received placebos (vehicles for both cocaine and NTI) before being placed in either side of the chamber. This is a typical control group and can be used to determine if merely the procedures themselves of handling the rats leads rats to change their preference for a side of the alley.
# There was yet another control group. This group received NTI before being placed in the side of putative conditioning and placebos at other times. […] So, the basic conditions for testing a NTI's effects on cocaine's ability to establish a CPP indicative of cocaine's positivity were set.
# FIG. 2 depicts the mean percent change from baseline for each of the experimental groups. The group represented by the open bar (far left bar) received only injections of placebos before being put into either side of the apparatus, i.e., this is a placebo control group. […] The striped bar depicts the mean scores of the group that received NTI before being placed into the side of conditioning and saline before being placed into the other side. […] The solid black bar depicts the scores of the group getting cocaine before being put into the side of conditioning (saline or placebo before being put into the other side). […] The cross-hatched bar depicts the mean score of the group treated with cocaine but also receiving NTI.
# [2] = drug alone; literature; cited from earlier work
# [3] = type: in vivo, rats; conditions: for pressing for brain stimulation, cocaine alone: cocaine (5.0 mg/kg in Example 5); for pressing for brain stimulation, NTI plus MDMA: in words
# Text: When rats are fixed with chronically indwelling bipolar electrodes for electrical stimulation of the medial forebrain bundle, they will press levers for brief durations of stimulation. The higher the intensity of stimulation, the greater the pressing. […] These relationships plus extant theory provide the rationale for using pressing for brain stimulation as a means of assessing the reinforcing effects of drugs and assessing which drugs might affect another drug's reinforcing effects.
# The particulars of the procedures used herein are briefly summarized. Further information is in Reid (cited above) and Reid et al. (Life Sciences, 52, PL67-71 (1993)). Rats were fixed with chronically indwelling bipolar electrodes. Using standard stereotaxic methods, which includes full anesthesia, the tips of the electrode were aimed to stimulate the medial forebrain bundle as it traverses the lateral hypothalamus. With the skull held in a stereotaxic instrument so that a plane between bregma and lamba was perpendicular to the shaft of the electrode, the following stereotaxic coordinates were used: 3.5 mm posterior to brema, 1.6 mm lateral to the midline, and 8.6 mm below the surface of the skull.
# The apparatus of these tests was a Skinner box (24×30 ×38 cm) equipped with a lever (2.5×2 cm). Each box was fixed with electrical leads and a slip-ring apparatus that allowed the rat to be connected to the electrical stimulator for intracranial stimulation, but allowed the rat to move freely in the box.
# Upon full recovery from surgery, rats were trained to press a lever in the Skinner box for electrial stimulation of the brain. The electrical stimulation was 60 Hz sine waves of 0.3 sec. The maximum intensity used was of 50 microAmps. Each lever press delivered one 0.3-sec of brain stimulation.
# Just after rats learned to press the lever, the intensity of the brain stimulation was varied. Three intensities were chosen. The lowest intensity was one that was barely sufficient to sustain lever pressing. The highest intensity sustained high rates of pressing, but not the highest rates that a rat can achieve. The medium intensity was about midway between the lowest and the highest. Once a set of intensities were established for each rat, those intensities remained fixed throughout the balance of testing. […] Each rat was under a daily regimen. They were allowed to press for each of three intensities of brain stimulation for 10 minutes. […] They were allowed to press the lever under this daily regimen under level-pressing rates became stable. Then, drugs (or placebos) were administered.
# The methods of Example 5 were nearly the same as those of Example 4. Rats were fixed, using standard procedures, with chronically indwelling electrodes for stimulation of the medial forebrain bundle. Subsequent to recovery from surgery, they were trained to press for brain stimulation. After each learned to press, they were put on a daily regimen. That daily regimen involved pressing for 5 min at a high intensity of brain stimulation, followed by 5-minute sessions with medium, low, low, medium and then high intensity. Intensities were set for each rat so that pressing rate for the low intensity was rather slow (the low intensity being near lower threshold for maintaining pressing), pressing for the high intensity was at a high rate, and pressing for the medium intensity was between the rate for low and high intensity. Pressing at each intensity was averaged for an index of rat's responsiveness at that intensity.
# dopamine transporter = conditions: in words; cited from earlier work
# [4] = type: in vivo, rats; conditions: cocaine 0.4 mg/kg a lever press; one-hour session
# Text: When rats are fixed with chronically indwelling intravenous catheters, drugs can be administered as the rats are walking around. These same rats can be put into a box equipped with a lever, the depression of which actuates a pump that can deliver drug through the catheter, i.e., the rats can be put into a Skinner box with drug administration a continguency of lever-pressing. […] See J. R. Weeks et al., "Screening for Drug Reinforcement Using Intravenous Self-Administration in the Rat," Bozarth, cited above, at pages 35-44.
# Rats were fixed with chronically indwelling catheters for the delivery of doses of cocaine directly into their veins. Subsequently, the rats were trained to press a lever for small bolus injections of cocaine (0.4 mg/kg of cocaine a lever press with an injection volume of 10 microliters of drug plus saline solution, the drug carrier). Rats were given one-hour opportunities daily to press for cocaine.
# delta opioid receptor = test: In vivo antagonism of DSLET antinociception (writhing); parameters: species or system mice; conditions: 20 mg/kg s.c.; in words
# Method: When mice are injected with an irritant, they respond by a characteristic writhing that can be inhibited by analgesics. Consequently, the writhing response can be used to index the effects of particular opioids.
# mu opioid receptor = conditions: agonist morphine in GPI; antagonist 100 or 200 nM, 15 min; read-out: Ke; cited from earlier work
Structure (SMILES),"conditioned place preference, cocaine alone [1]","conditioned place preference, cocaine alone ([1]; listed as cocaine)",conditioned place preference [2],"pressing for brain stimulation, cocaine alone [3]","pressing for brain stimulation, cocaine alone ([3]; listed as cocaine)",dopamine transporter binding / dopamine reuptake inhibition (dopamine transporter),"cocaine self-administration, average presses without NTI [4]","conditioned place preference, NTI alone ([1]; rat, in vivo)","conditioned place preference, NTI plus cocaine ([1]; rat, in vivo)",blocking of writhing inhibition due to DSLET (delta opioid receptor),"mean presses at High intensity, MDMA plus Naltrindole ([3]; High intensity, combination with MDMA, six rats) [presses per ten minutes]","mean presses at Low intensity, MDMA plus Naltrindole ([3]; Low intensity, combination with MDMA, six rats) [presses per ten minutes]","mean presses at Medium intensity, MDMA plus Naltrindole ([3]; Medium intensity, combination with MDMA, six rats) [presses per ten minutes]","pressing for brain stimulation, NTI alone ([3]; NTI by itself, listed as NTI)","pressing for brain stimulation, NTI plus MDMA ([3]; listed as NTI)","pressing for brain stimulation, NTI plus MDMA ([3]; listed as naltrindole)","pressing for brain stimulation, NTI plus amphetamine ([3]; rat, in vivo)","pressing for brain stimulation, NTI plus cocaine ([3]; rat, in vivo)","pressing for brain stimulation, NTI plus morphine ([3]; rat, in vivo)",Kb (mu opioid receptor) [nM]
"COC(=O)[C@H]1[C@@H](OC(=O)c2ccccc2)C[C@@H]2CC[C@H]1N2C [Cocaine, methyl 3-(benzoyloxy)-8-methyl-8-azabicyclo[3.2.1]octane-2-carboxylate]",established a positive CPP; also recorded: produced a significant (asterisk) positive place preference,statistically significantly different than its baseline score and is significantly larger than the placebo-control group's scores,establishes a CPP,leads to a marked increase in pressing compared to pressing under the influence of placebo,large increase in pressing; also recorded: increased pressing for stimulation,binds to the dopamine transporter and inhibits dopamine reuptake,about 11 presses a session,,,,,,,,,,,,,
"Oc1ccc2c3c1O[C@H]1c4[nH]c5ccccc5c4C[C@@]4(O)[C@@H](C2)N(CC2CC2)CC[C@]314 [Compound 1, 17-(cyclopropylmethyl)-6,7-dehydro-3,14β-dihydroxy-4,5α-epoxy-6,7-2',3'-indolmorphinan]",,,,,,,,did not significantly change from baseline to testing; also recorded: not statistically different at testing from baseline; also recorded: did not by itself establish a place preference; also recorded: did not produce place preferences or place aversions,significantly different from the cocaine group's scores but not different from the other groups' scores; also recorded: blocked cocaine's ability to produce a positive CPP; also recorded: antagonized by naltrindole,effectively blocked the writhing inhibition due to DSLET,825,98,342,"no demonstratable effect; also recorded: did not, by itself, reduce pressing for brain stimulation",reduced the increased pressing associated with the administration of MDMA,pressing at the low intensity is reduced considerably and there is no reliable difference in pressing under the combination of drugs compared to placebo,pressed somewhat less under the influence of NTI (10 mg/kg) plus amphetamine than they did under the influence of placebos; also recorded: NTI can modulate amphetamine's as well as cocaine's reinforcing effects; also recorded: reduced pressing similar to rate under placebo,NTI blocked cocaine's effects; also recorded: blocked the effects of cocaine; also recorded: NTI blocked cocaine's ability to be reinforcing; also recorded: reduced rate of pressing under the influence of cocaine to that similar to rate of pressing under placebo alone; also recorded: extraordinarily effective in blocking cocaine's salient effects,hardly affected the effects of morphine; also recorded: negligible; also recorded: did not markedly or significantly affect rate of pressing,29.4
